Measured values reported in patent US20210139453A1, “(HETERO)ARYL SULFONAMIDE COMPOUND AND FORMULATION FOR CONTROLLING HARMFUL ORGANISMS” (Nippon Soda Co., Ltd., priority 2018, published 2021).

The compounds below were run on Mythimna separata (assay: Efficacy test against Mythimna separata (artificial feed mixed with emulsion)). Conditions: in vivo.
Text: Five parts of the (hetero)aryl sulfonamide compound of the present invention, 93.6 parts of dimethylformamide and 1.4 parts of a polyoxyethylene alkyl aryl ether were mixed together and dissolved to obtain an emulsion (I) containing 5% of the active ingredient.
For the control, 93.6 parts of dimethylformamide and 1.4 parts of a polyoxyethylene alkyl aryl ether were mixed together and dissolved to obtain an emulsion (II).
Insect mortality rate(%)=(number of dead insects/number of test insects)×100 Nematode mortality rate(%)=(number of dead nematodes/number of test nematodes)×100
First, 0.8 g of a commercially-available artificial feed (Insecta LFS, manufactured by Nosan Corporation) and 1 μl of the emulsion (I) were mixed well, and thereby, a test feed was obtained. Subsequently, 0.2 g of the test feed was placed in each of the treatment areas of a plastic test container (volume: 1.4 ml). Subsequently, two second-instar larvae of Mythimna separata were inoculated into each treatment area, and a plastic lid was placed on the test container to prevent the larvae from escaping. The closed container was placed in a thermostatic chamber at 25° C. On the 5th day therefrom, the insect mortality rate and the amount of feed consumed were checked. The test was repeated.
In addition, for a control area, the insect mortality rate and the amount of feed consumed were checked in the same manner as that described in Test Example 1, with the exception of replacing the emulsion (I) with the emulsion (II).
With `O=S(=O)(Nc1cc(C(F)(F)F)ccc1-c1nc2cc(Cl)c(Cl)cc2[nH]1)C(F)(F)F` [Compound 2-3] the “insect mortality rate against Mythimna separata” value (“insect mortality rate” below) was 100%. `O=S(=O)(Nc1cc(C(F)(F)F)cnc1-c1cccc(C(F)(F)F)n1)C(F)(F)F` [Compound 3-47] was tested, and the “insect mortality rate” value was 100%. For `O=S(=O)(Nc1cc(F)c(F)cc1-c1nc2cc(F)c(F)cc2[nH]1)C(F)(F)F` [Compound 2-9], the “insect mortality rate” value was 100%. `O=S(=O)(Nc1cc(C(F)(F)F)ccc1-n1ccc(-c2ccc(C(F)(F)F)cc2)n1)C(F)(F)F` [Compound 2-22] was tested, and the “insect mortality rate” value was 100%. With `O=S(=O)(Nc1cc(C(F)(F)F)ccc1-n1ccc(-c2ccc(Cl)cc2)n1)C(F)(F)F` [Compound 2-18] the “insect mortality rate” value was 100%. In the case of `O=S(=O)(Nc1cc(C(F)(F)F)ccc1-n1cc(-c2ccc(Cl)cc2)cn1)C(F)(F)F` [Compound 2-16], the “insect mortality rate” value is reported as 100%. For `CCS(=O)(=O)Nc1cc(C(F)(F)F)ccc1-n1cnc(-c2ccc(Br)cc2)n1` [Compound 2-17], the “insect mortality rate” value was 100%. For `O=S(=O)(Nc1cc(C(F)(F)F)ccc1-c1ccc(C(F)(F)F)cn1)C(F)(F)F` [Compound 2-36], the “insect mortality rate” value was 100%. For `Cc1c(Br)c(C(F)(F)F)nn1-c1ncc(C(F)(F)F)cc1NS(=O)(=O)C(F)(F)F` [Compound 3-46], the “insect mortality rate” value was 100%. `O=S(=O)(Nc1cc(C(F)(F)F)ccc1-n1cnc(-c2ccc(Br)cc2)n1)C(F)(F)F` [Compound 2-15] was tested, and the “insect mortality rate” value was 100%. With `O=S(=O)(CC(F)(F)F)Nc1cc(C(F)(F)F)cnc1-n1ccc(C(F)(F)F)n1` [Compound 3-8] the “insect mortality rate” value was 100%. `CCS(=O)(=O)Nc1cc(C(F)(F)F)ccc1-c1nc2cc(F)c(F)cc2[nH]1` [Compound 2-14] was tested, and the “insect mortality rate” value was 100%. `O=S(=O)(Nc1cc(C(F)(F)F)ccc1-c1nc(-c2ccc(Cl)cc2)no1)C(F)(F)F` [Compound 2-25] was tested, and the “insect mortality rate” value was 100%. In the case of `O=S(=O)(Nc1cc(C(F)(F)F)ccc1-c1nc2cc(C(F)(F)F)ccc2[nH]1)C(F)(F)F` [Compound 2-6], the “insect mortality rate” value is reported as 100%. `O=S(=O)(Nc1cc(C(F)(F)F)ccc1-c1nc2cc(F)c(F)cc2[nH]1)C(F)(F)F` [Compound 2-8] was tested, and the “insect mortality rate” value was 100%. `O=S(=O)(N(c1cc(C(F)(F)F)ccc1-c1nc2cc(C(F)(F)F)ccc2[nH]1)S(=O)(=O)C(F)(F)F)C(F)(F)F` [Compound 2-5] was tested, and the “insect mortality rate” value was 100%.
